Activity calls are given as the source filed them.
Legend:
ORF 73 = ORF 73 (Human herpesvirus 8, UniProt O40947); assay: inhibitors of C-LANA binding to LBS DNA, dose response, biochemical, fluorescence polarization, cherry-picked samples (AID 504725); design: species or system Human gammaherpesvirus 8;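 further: fluorescence polarization of a labeled DNA duplex reporting LANA DNA binding; potency is for inhibitors that block LANA binding to the DNA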
[1] = target: Eukaryotic translation initiation factor 4E (Mus musculus, UniProt P63073); assay: eIF4E–eIF4G protein interaction inhibitors, dose response, biochemical, TR-FRET (AID 855); assay type: functional;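 further: potency for disrupting eIF4E binding to eIF4GI seen as loss of FRET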
Chain of Eukaryotic translation initiation factor 4E (P63073 whole entry): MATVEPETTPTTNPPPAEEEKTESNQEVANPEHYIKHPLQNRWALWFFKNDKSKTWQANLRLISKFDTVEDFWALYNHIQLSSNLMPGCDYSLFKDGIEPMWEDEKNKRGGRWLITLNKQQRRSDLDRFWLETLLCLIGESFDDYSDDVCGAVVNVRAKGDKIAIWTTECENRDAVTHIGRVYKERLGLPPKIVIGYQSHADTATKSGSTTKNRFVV

[2] = target: T1, Corticotropin-releasing factor receptor 2/Corticotropin-releasing factor-binding protein (Homo sapiens, UniProt P24387+Q13324); assay: activators of CRF receptor 2 with binding protein – uHTS hits, confirmation (AID 602473); assay type: functional; conditions: read-out: EC50_Mean
T1 sequence (Q13324 whole entry): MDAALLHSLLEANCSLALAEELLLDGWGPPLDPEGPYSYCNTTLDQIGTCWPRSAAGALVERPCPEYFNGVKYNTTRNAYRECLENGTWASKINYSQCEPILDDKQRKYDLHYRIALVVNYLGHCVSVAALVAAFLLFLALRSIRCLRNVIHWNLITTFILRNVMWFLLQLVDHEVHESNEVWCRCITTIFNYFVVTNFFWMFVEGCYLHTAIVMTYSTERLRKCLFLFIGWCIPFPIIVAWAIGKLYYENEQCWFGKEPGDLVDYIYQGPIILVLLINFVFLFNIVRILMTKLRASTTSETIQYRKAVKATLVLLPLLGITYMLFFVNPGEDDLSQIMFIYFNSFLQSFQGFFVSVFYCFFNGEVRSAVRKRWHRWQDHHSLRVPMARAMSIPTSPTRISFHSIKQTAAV
T1 sequence (P24387 whole entry): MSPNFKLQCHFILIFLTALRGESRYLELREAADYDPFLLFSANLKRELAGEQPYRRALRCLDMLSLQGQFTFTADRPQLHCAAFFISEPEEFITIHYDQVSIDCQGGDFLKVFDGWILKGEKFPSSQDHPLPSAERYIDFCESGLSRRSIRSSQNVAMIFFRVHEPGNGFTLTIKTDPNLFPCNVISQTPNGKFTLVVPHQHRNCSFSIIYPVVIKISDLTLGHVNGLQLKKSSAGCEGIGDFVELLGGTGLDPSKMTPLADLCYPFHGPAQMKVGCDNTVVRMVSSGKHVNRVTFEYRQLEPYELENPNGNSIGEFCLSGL

HeLa = assay: HeLa cell cytotoxicity, dose response, cytotoxicity control, 24 h, cherry-picked samples (AID 504726); assay type: functional, cell-based; conditions: Homo sapiens;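 further: potency for cytotoxicity as loss of luminescence signal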
Keap1/Nrf2 = Keap1/Nrf2 (Homo sapiens, UniProt Q14145); assay: Keap1-Nrf2 protein-protein interaction inhibitors, dose response, biochemical, fluorescence polarization, cherry-picked samples (AID 588683)
Chain of Keap1/Nrf2 (Q16236 whole entry): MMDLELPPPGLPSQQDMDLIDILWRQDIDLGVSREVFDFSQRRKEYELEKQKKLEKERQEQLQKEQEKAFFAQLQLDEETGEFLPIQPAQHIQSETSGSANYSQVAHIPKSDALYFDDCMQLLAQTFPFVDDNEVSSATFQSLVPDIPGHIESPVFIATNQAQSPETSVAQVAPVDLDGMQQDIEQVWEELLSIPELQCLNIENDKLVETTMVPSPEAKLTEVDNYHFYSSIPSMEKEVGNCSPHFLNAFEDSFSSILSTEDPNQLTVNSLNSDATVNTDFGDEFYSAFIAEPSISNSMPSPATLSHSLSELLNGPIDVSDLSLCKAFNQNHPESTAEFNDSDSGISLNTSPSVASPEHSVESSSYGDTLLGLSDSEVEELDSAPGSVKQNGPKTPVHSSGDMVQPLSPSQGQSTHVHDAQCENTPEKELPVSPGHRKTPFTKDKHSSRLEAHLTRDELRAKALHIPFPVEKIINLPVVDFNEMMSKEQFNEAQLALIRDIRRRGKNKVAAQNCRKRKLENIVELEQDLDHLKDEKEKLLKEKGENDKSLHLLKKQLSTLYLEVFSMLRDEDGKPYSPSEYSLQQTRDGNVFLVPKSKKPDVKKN
Chain of Keap1/Nrf2 (Q14145 whole entry): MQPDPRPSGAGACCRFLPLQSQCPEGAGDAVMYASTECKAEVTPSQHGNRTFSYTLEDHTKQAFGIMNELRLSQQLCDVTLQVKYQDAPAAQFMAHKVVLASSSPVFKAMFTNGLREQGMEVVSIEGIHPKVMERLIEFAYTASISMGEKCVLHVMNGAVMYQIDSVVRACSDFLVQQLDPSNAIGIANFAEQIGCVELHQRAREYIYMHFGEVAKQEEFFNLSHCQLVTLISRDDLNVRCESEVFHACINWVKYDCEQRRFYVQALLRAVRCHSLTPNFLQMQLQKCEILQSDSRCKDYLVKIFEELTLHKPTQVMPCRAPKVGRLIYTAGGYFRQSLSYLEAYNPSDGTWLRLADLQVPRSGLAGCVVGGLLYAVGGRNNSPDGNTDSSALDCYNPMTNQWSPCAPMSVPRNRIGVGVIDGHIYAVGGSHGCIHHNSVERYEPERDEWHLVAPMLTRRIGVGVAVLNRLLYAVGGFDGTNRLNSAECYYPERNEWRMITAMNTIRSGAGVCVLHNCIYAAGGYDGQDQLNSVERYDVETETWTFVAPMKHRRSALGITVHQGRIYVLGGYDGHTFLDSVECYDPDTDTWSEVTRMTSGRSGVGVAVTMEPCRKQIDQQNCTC

[3] = target: T2, Rac GTPase-activating protein 1 (Homo sapiens, UniProt Q9H0H5); assay: MgcRacGAP GTPase-activating activity inhibitors, confirmation, biochemical, ADP Hunter fluorescence, primary and confirmatory (AID 624330); assay type: functional
T2 sequence (Q9H0H5 whole entry): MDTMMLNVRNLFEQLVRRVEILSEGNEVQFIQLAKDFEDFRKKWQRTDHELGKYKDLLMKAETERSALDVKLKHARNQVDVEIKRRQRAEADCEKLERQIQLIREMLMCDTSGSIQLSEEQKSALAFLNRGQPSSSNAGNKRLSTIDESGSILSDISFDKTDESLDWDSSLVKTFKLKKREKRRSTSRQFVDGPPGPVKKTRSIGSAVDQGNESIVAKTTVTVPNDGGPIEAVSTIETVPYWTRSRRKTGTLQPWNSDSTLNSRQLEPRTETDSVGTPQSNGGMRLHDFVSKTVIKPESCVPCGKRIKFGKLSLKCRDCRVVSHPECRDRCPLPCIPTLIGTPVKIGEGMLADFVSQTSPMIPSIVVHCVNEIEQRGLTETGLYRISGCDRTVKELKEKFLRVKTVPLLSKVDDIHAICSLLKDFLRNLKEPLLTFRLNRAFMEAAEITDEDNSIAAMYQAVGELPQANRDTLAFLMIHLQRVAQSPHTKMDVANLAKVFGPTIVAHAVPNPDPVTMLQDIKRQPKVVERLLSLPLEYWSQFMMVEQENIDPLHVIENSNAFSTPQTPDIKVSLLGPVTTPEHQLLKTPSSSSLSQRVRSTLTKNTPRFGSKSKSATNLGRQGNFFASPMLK

[4] = target: T3, Mannose-6-phosphate isomerase (Homo sapiens, UniProt P34949); assay: PMI enzyme inhibitors, confirmation, biochemical, fluorescence intensity (AID 1535)
T3 sequence (P34949 whole entry): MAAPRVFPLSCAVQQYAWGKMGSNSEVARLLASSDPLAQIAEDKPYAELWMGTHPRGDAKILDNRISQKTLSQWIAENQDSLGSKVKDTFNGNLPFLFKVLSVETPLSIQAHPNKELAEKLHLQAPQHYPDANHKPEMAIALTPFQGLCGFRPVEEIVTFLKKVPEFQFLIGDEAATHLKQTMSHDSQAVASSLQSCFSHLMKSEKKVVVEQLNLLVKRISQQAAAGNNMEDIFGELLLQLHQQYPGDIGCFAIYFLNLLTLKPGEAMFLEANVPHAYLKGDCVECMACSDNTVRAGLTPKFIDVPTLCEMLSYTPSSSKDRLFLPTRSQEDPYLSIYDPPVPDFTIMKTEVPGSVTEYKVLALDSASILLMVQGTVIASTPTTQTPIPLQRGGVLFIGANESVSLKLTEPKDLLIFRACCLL

Phosphomannomutase 2 = Phosphomannomutase 2 (Homo sapiens, UniProt O15305); assay: Counter screen SAR assay for PMM2 inhibitors via a fluorescence intensity assay. [Related pubchem assays (depositor defined):AID1545, AID1574]
Chain of Phosphomannomutase 2 (O15305 whole entry): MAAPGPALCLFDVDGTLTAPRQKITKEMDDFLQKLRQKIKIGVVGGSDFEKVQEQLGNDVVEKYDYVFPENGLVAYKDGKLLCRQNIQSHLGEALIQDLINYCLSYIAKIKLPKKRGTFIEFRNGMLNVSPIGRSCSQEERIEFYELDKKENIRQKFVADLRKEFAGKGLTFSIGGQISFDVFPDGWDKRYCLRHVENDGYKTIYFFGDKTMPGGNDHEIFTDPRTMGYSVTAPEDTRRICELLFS

[5] = target: DNA dC->dU-editing enzyme APOBEC-3G (Homo sapiens, UniProt Q9HC16); assay: Dose Response confirmation of small molecule APOBEC3G DNA Deaminase Inhibitors via a fluorescence-based single-stranded DNA deaminase assay. [Related pubchem assays (depositor defined):AID493012, AID493028]; assay type: functional
Chain of DNA dC->dU-editing enzyme APOBEC-3G (Q9HC16 whole entry): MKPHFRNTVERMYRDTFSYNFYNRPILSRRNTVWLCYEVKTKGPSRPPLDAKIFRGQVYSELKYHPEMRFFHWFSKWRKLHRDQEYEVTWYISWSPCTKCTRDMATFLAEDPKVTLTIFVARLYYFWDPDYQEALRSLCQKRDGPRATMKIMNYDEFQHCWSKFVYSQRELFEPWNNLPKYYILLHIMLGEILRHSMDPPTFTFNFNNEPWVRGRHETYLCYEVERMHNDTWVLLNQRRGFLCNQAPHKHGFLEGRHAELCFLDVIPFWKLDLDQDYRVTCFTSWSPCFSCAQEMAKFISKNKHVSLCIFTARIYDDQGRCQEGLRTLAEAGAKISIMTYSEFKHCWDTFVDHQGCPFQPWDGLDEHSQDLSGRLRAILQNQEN

Jurkat [6] = assay: antigen receptor-induced NF-kB inhibitors, dose response, Jurkat, luciferase reporter, luminescence, B- and T-cell (AID 489004); assay type: functional, cell-based; conditions: Homo sapiens;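 further: NF-kB luciferase reporter Jurkat cells stimulated with PMA plus ionomycin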
[7] = Luminescence Cell-Based Dose Retest to Confirm Inhibitors of Cancer Stem Cells. [Related pubchem assays (depositor defined):AID2717, AID2721]; assay type: functional; conditions: Homo sapiens
[8] = cytotoxicity in HEK-293T NF-kB-Luc cells, dose response, cytotoxicity control for B/T-cell NF-kB inhibitor project, cell-based, uHTS hits (AID 489019); assay type: functional;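 further: IC50 reflects cytotoxicity as loss of cell viability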
Paired box protein Pax-8 = Paired box protein Pax-8 (Homo sapiens, UniProt Q06710); assay: inhibitors of PAX8-driven TPO luciferase reporter, dose response, RMG-I cells, cherry-pick (AID 687027); assay type: functional, cell-based;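 further: luciferase reporter driven by Pax8 target thyroperoxidase promoter measured by SteadyGlo luminescence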
Chain of Paired box protein Pax-8 (Q06710 whole entry): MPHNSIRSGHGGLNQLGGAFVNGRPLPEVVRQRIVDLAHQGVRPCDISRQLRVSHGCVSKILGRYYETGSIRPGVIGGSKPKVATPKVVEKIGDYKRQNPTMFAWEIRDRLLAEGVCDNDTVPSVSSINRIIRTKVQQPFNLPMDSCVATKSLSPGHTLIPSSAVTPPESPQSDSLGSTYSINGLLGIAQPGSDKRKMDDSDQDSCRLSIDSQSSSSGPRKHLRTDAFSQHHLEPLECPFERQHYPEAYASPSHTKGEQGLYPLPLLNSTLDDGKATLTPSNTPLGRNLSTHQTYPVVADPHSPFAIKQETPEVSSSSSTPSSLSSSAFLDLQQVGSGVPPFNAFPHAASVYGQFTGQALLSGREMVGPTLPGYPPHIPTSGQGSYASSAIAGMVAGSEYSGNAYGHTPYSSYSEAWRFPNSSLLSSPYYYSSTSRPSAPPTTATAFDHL

Vero [9] = assay: cells; assay type: functional; conditions: Chlorocebus sabaeus
[10] = control 3'UTR Renilla luciferase suppression, dose response, counter-screen for Shn3 inhibitor project, cell-based, Clone20-Shn3RL, cherry-picked (AID 624133); assay type: functional
Vero [11] = assay: cells; assay type: functional, cell-based; conditions: Chlorocebus sabaeus
[12] = Shn3 3'UTR reporter inhibitors, dose response, cell-based, Clone20 osteoblasts, firefly luciferase, cherry-picked (AID 624132); assay type: functional;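 further: firefly luciferase luminescence from reporter carrying the Shn3 3'UTR in osteoblasts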
Beta Lactamase = Beta Lactamase (Pseudomonas aeruginosa, UniProt Q932Y6); assay: beta-lactamase reporter inhibitor potency, dose response, artefact control for NOD2-RIPK2 interaction inhibitor project, BLA reporter cells, FRET fluorescence (AID 651552); assay type: functional, cell-based
Chain of Beta Lactamase (Q932Y6 whole entry): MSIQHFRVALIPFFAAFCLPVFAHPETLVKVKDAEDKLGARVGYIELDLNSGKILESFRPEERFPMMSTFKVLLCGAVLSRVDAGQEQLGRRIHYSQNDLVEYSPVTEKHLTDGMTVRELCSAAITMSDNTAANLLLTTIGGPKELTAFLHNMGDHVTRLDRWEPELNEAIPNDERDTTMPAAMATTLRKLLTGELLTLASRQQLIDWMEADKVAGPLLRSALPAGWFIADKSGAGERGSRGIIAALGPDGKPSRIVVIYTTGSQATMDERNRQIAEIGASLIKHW

[13] = HepG2 cell cytotoxicity, dose response, cytotoxicity control for Shn3 inhibitor project, CellTiter-Glo, cherry-picked (AID 624134); assay type: functional, cell-based
[14] = Fluorescence-based cell-based high throughput dose response assay for inhibitors of the interaction of nucleotide-binding oligomerization domain containing 2 (NOD2) and the receptor-interacting serine-threonine kinase 2 (RIPK2).; assay type: functional; conditions: Homo sapiens
Escherichia coli [15] = assay: microbe, parasite or virus in culture
Escherichia coli [16] = assay: microbe, parasite or virus in culture; remark: listed apart in the source
HEK293 [17] = assay: SAR Analysis of small molecule inhibitors of T-cell specific antigen receptor-induced NF-kB activation in a HEK-293T cell line using a luminescence assay - Set 2. [Related pubchem assays (depositor defined):AID435003, AID435012, AID489026]; assay type: functional, cell-based; conditions: Homo sapiens
Jurkat [18] = assay: SAR Analysis of small molecule inhibitors of T-cell specific antigen receptor-induced NF-kB activation in a Jurkat cell line using a luminescence assay - Set 2. [Related pubchem assays (depositor defined):AID435003, AID435012, AID465]; assay type: functional, cell-based; conditions: Homo sapiens
HEK293 [19] = assay: cytotoxicity in HEK293T NF-kB-Luc cells, SAR follow-up, cytotoxicity control for NF-kB activator project, cell-based, resazurin fluorescence (AID 493251); assay type: functional; conditions: Homo sapiens

Chain of ORF 73 (O40947 whole entry): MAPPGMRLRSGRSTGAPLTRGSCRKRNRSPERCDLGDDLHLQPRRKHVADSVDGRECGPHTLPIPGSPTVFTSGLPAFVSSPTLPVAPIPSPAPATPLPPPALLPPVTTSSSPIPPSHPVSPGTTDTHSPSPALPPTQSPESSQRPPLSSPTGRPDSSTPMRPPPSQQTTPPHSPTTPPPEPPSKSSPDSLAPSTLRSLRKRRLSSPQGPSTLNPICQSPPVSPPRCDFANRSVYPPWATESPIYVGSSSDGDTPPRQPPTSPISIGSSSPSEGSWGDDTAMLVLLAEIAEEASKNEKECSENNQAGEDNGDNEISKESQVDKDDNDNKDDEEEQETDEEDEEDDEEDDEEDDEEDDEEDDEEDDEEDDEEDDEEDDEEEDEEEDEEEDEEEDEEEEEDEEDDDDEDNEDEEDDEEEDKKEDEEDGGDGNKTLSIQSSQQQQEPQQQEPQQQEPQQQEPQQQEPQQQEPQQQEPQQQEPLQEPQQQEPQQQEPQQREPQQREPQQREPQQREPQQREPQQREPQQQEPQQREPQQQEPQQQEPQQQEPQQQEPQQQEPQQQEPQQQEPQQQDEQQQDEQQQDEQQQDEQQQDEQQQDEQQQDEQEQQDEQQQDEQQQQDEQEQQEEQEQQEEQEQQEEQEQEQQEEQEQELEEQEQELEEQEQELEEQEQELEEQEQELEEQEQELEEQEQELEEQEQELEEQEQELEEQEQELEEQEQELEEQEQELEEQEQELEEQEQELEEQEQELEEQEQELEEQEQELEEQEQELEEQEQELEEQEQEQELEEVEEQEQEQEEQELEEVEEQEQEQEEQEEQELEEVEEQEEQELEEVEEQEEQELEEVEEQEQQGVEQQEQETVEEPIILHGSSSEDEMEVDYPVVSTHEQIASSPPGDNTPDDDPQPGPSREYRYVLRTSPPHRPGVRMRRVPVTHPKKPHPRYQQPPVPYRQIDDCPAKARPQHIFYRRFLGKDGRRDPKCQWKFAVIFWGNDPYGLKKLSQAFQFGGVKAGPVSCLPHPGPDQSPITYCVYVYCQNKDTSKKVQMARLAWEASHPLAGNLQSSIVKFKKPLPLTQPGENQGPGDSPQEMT

SMILES: CCCN(CCC)S(=O)(=O)c1ccc(C(=O)OCCN2C(=O)c3cccc4c(N5CCOCC5)ccc(c34)C2=O)cc1
- AC50 (ORF 73): 21.4 µM (active)
- IC50 [1]: > 64 µM (inactive)
- EC50 [2]: 6.32 µM (active)
- AC50 (HeLa): 57.8 µM (active)
- AC50 (Keap1/Nrf2): 7.75 µM (active)

SMILES: Sc1nnc(Nc2ccccc2Cl)s1
- IC50 [3]: 54.8 µM (active)
- IC50 [4]: > 50 µM (inactive)
- IC50 (Phosphomannomutase 2): > 100 µM (inactive)
- IC50 [5]: > 100 µM (inactive)

SMILES: C[C@@H]1O[C@@H](O[C@@H]2C=C3CCC4C(CC[C@]5(C)[C@@H](c6ccc(=O)oc6)CC[C@]45O)[C@@]3(C)CC2)[C@H](O)[C@H](O)[C@H]1O (stereo not given in full)
- IC50 (Jurkat [6]): 1.66 µM (active)
- AC50 [7]: < 0.16 µM (active)
- IC50 [8]: > 80 µM (inactive)
- AC50 (Paired box protein Pax-8): < 0.26 µM (active)
- CC50 (Vero [9]): < 0.05 µM (active)

SMILES: COc1ccc2nc3ccccc3[n+]([O-])c2c1
- AC50 (ORF 73): 30.8 µM (active)
- EC50 [2]: 18.1 µM (active)
- AC50 (HeLa): 119 µM (active)
- AC50 (Keap1/Nrf2): 8.81 µM (active)

SMILES: O=C(/C=C1\C(=O)Nc2ccccc21)/C=C1\C(=O)Nc2ccccc21
- AC50 [10]: 11.7 µM (active)
- IC50 (Vero [11]): > 25 µM (active)
- AC50 [12]: 9.5 µM (active)
- IC50 (Beta Lactamase): 28.6 µM (inactive)
- AC50 [13]: 64.7 µM (active)
- IC50 [14]: 1.55 µM (active)
- CC50 (Vero [9]): 20 µM (active)

SMILES: COc1ccc(NC(=O)C/C(C)=N/NC(=O)C(=O)Nc2cccc(Cl)c2C)c(OC)c1
- AC50 (Escherichia coli [15]): 51.6 µM (active)
- AC50 (Escherichia coli [16]): 16.3 µM (active)

SMILES: CC(C)c1ccc(C(NC(=O)C2CCCCC2)c2ccc3cccnc3c2O)cc1 (stereo not given)
- IC50 (HEK293 [17]): 4.61 µM (active)
- IC50 (Jurkat [18]): 2.94 µM (active)
- IC50 (HEK293 [19]): 44.9 µM (inactive)

From ChEMBL document CHEMBL1201862, “PubChem BioAssay data set” (2004)
